molecular target: T1, Coagulation factor VII (Homo sapiens, UniProt P08709); assay: Enzyme Inhibition Assay
T1 sequence (P08709 whole entry): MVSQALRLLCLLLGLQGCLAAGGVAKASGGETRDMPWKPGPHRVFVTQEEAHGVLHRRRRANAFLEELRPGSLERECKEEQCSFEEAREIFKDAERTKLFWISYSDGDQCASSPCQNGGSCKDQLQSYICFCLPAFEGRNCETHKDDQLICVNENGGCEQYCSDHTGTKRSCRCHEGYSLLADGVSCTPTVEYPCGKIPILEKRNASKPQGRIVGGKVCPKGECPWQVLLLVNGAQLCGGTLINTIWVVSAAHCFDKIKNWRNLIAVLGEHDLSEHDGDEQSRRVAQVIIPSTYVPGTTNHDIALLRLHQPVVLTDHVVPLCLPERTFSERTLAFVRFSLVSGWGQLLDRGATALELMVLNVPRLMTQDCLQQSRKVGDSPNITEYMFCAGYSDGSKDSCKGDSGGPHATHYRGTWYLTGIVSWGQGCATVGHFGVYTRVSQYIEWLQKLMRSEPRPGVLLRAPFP
Procedure: The enzyme reactions were initiated by the addition of substrate, and the color developed from the release of p-nitroanilide from each chromogenic substrate was monitored at 405 nm using a Thermomax kinetic plate reader (Molecular Devices). […] The apparent Ki values were then calculated according to the Cheng-Prusoff equation: Ki = IC50/1 + [S]/Km.

With `CSc1ccccc1-c1cc(C(CC(=O)O)C(=O)O)cc(-c2nc3ccc(C(=N)N)cc3[nH]2)c1O` (stereo not given) [2-[3-(5-carbamimidoyl-1H-1,3-benzodiazol-2-yl)-4-hydroxy-5-[2-(methylsulfanyl)phenyl]phenyl]butanedioic acid] as the compound, how does the Ki read?
The Ki was 64 nM.

With `N=C(N)c1ccc2nc(-c3cc(C(CC(=O)O)C(=O)O)cc(-c4cccc(C5CCOC(=O)O5)c4)c3O)[nH]c2c1` (stereo not given) [2-[3-(5-carbamimidoyl-1H-1,3-benzodiazol-2-yl)-4-hydroxy-5-[3-(2-oxo-1,3-dioxan-4-yl)phenyl]phenyl]butanedioic acid] as the compound, how does the Ki read?
Its Ki is 280 nM.

`N=C(N)c1ccc2nc(-c3cc(C(CC(=O)O)C(=O)O)cc(-c4ccc(CO)s4)c3O)[nH]c2c1` (stereo not given) [2-[3-(5-carbamimidoyl-1H-1,3-benzodiazol-2-yl)-4-hydroxy-5-[5-(hydroxymethyl)thiophen-2-yl]phenyl]butanedioic acid] was tested. Which Ki did it give?
Its Ki is 130 nM.

For `CC(=O)N(c1cccc(C)c1)c1cc(C(CC(=O)O)C(=O)O)cc(-c2nc3ccc(C(=N)N)cc3[nH]2)c1O` (stereo not given) [2-[3-(5-carbamimidoyl-1H-1,3-benzodiazol-2-yl)-4-hydroxy-5-[N-(3-methylphenyl)acetamido]phenyl]butanedioic acid], which Ki is on record?
The Ki was 54 nM.

How did the Ki turn out when `N=C(N)c1ccc2nc(-c3cc(C(CC(=O)O)C(=O)O)cc(-c4ccc(Cl)s4)c3O)[nH]c2c1` (stereo not given) [2-[3-(5-carbamimidoyl-1H-1,3-benzodiazol-2-yl)-5-(5-chlorothiophen-2-yl)-4-hydroxyphenyl]butanedioic acid] was run?
The Ki was 110 nM.
